pIC50: −log10 of the molar value. Read-outs that look alike come from different tables or passages of the source.
Columns and labels:
Insulin Receptor Kinase = Insulin Receptor Kinase (Homo sapiens, UniProt P06213); assay: Kinase Selectivity Assay Insulin Receptor Kinase; assay type: biochemical; conditions: Kinase Selectivity, Tables 2a-2k; read-out: Insulin R Kinase IC50
Description: (§1) Assays to test compound inhibition of other kinases were preformed using methods that measure the amount of phosphorylation of a biotinylated peptide substrate. Biotinylated peptide substrates were selected from the literature as appropriate for the enzyme being evaluated. […] Assay conditions vary slightly for each protein kinase, for example, insulin receptor kinase requires 10 mM MnCl2 for activity and Calmodulin-dependent protein kinase requires calmodulin and 10 mM CaCl2. These assay conditions are known in the art. The reaction mixture was dispensed into the wells of a streptavidin coated Flashplate and 1 μl drug stock in 100% DMSO was added to a 100 μl reaction volume resulting in a final concentration of 1% DMSO on the reaction. Enzyme was diluted in 50 mM Tris-HCl pH=8.0, 0.1% BSA and add to each well. The reaction was incubated for one hour at 30° C. in the presence of compound. After one hour the reaction mix was aspirated from the plate and the plate was washed with PBS containing 100 mM EDTA. The plate was read on a scintillation counter to determine ^33P-γ-ATP incorporated into the immobilized peptide. Test compounds were assayed in duplicate at 8 concentrations [100 uM, 10 uM, 1 uM, 100 nM, 10 nM, 1 nM, 100 pM, 10 pM]. A maximum and minimum signal for the assay was determined on each plate. The IC50 was calculated from the dose response curve of the percent inhibition of the maximum signal in the assay according to the formula [max signal—background/test compound signal—background (100)=% inhibition] by graphing the percent inhibition against the log concentration of test compound. Known inhibitor compounds appropriate for the kinase being assayed were also included on each plate.
(§2) CDK2 in complex with cyclin A is commercially available (Upstate Biotech, Lake Placid, N.Y.). The CDK4 complex was composed of a mouse CDK4 protein and a mouse Cyclin D1 protein (The mouse CDK4 protein was genetically fused to an N-terminal Flag-epitope tag and the mouse Cyclin D1 protein was fused with an N-terminal AU-1 epitope tag. The genes encoding these proteins were transferred to commercially available baculoviral vectors. The recombinant CDK4/D1 complex was then made by co-infecting commercially available insect cells with viruses carrying these two constructs). […] ERK-1 protein (Discontinued from Calbiochem). EGFR (epidermal growth factor receptor) is purified from human A431 cell membranes (Sigma, St. Louis, Mo., Cat.# E3641).

Protein Kinase A = molecular target: T1, Protein Kinase A (Bos taurus, UniProt P00517); assay: Kinase Selectivity Assay Protein Kinase A; assay type: biochemical, bovine; conditions: Kinase Selectivity, Tables 2a-2k; read-out: PKA IC50
T1 construct: purified from bovine heart; purchased Upstate Biotech 14-114; host or cells: bovine heart
Description: as §1, §2

[1] = molecular target: T2, Casein Kinase 1 (CK1 delta isoform) (Rattus norvegicus, UniProt Q06486); assay: Kinase Selectivity Assay Casein Kinase 1; assay type: biochemical; conditions: Tables 2a-2k, read-out: Caseine Kinase 1 IC50
T2 construct: a truncation at amino acid 318 of the C-terminal portion of the rat CK1 delta isoform; purchased New England Biolabs 6030; host or cells: E. coli
T2 sequence (Q06486 1-317): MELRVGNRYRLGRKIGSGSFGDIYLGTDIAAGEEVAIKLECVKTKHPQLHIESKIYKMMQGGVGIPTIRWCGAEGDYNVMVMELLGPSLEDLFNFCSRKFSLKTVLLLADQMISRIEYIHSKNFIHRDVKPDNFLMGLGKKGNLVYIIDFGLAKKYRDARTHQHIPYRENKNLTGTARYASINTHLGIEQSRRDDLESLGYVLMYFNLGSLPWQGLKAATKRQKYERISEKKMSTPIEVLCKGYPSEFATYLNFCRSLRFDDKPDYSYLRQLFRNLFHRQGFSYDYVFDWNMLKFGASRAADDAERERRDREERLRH
Description: as §1, §2

[2] = molecular target: T3, Casein Kinase 2 (alpha and beta subunits) (Homo sapiens, UniProt P68400); assay: Kinase Selectivity Assay Casein Kinase 2; assay type: biochemical; conditions: Kinase Selectivity, Tables 2a-2k; read-out: Caseine Kinase 2 IC50
T3 construct: purchased New England Biolabs 6010; host or cells: E. coli
T3 sequence (P68400 whole entry): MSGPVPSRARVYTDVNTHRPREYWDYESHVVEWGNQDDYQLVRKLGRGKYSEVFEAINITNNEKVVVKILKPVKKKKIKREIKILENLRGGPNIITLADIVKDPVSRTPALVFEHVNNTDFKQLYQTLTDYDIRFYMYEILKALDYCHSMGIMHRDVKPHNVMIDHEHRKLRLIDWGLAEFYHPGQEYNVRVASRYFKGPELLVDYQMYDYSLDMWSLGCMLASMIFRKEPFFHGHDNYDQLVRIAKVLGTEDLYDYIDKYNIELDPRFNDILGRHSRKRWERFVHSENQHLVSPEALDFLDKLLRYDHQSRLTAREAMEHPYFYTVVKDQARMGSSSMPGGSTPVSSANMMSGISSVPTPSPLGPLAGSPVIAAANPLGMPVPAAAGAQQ
T3 sequence (P67870 whole entry partner): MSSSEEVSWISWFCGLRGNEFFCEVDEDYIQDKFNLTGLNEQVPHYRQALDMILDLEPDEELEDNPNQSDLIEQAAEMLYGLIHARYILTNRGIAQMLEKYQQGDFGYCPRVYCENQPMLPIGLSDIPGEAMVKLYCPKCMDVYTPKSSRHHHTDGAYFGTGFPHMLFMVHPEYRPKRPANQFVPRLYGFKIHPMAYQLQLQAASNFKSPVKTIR
How it was run: (§3)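 Radiometric Flashplate format: ^33P-γ-ATP transfer to immobilized biotinylated peptide, 1 h, 30° C, 1% DMSO final, enzyme in 50 mM Tris-HCl pH=8.0 + 0.1% BSA. Duplicate 8-point dilution, 100 uM down to 10 pM. IC50 from % inhibition of plate max signal versus log conc.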

[3] = molecular target: T4, Calmodulin Kinase (calmodulin-dependent protein kinase 2) (Rattus norvegicus, UniProt P11275); assay: Kinase Selectivity Assay Calmodulin Kinase; assay type: biochemical; conditions: Kinase Selectivity, Tables 2a-2k; read-out: Calmodulin Kinase 2 IC50
T4 construct: a truncated version of the alpha subunit of the rat protein; purchased New England Biolabs 6060; host or cells: insect cells
Description: as §1, §2

[4] = molecular target: T5, Glycogen Synthase Kinase-3 (beta isoform) (Oryctolagus cuniculus, UniProt G1T8E2); assay: Kinase Selectivity Assay Glycogen Synthase Kinase-3; assay type: biochemical, rabbit; conditions: Kinase Selectivity, Tables 2a-2k; read-out: GSK-3 IC50
T5 construct: purchased New England Biolabs 6040; host or cells: E. coli
T5 sequence (G1T8E2 1-432): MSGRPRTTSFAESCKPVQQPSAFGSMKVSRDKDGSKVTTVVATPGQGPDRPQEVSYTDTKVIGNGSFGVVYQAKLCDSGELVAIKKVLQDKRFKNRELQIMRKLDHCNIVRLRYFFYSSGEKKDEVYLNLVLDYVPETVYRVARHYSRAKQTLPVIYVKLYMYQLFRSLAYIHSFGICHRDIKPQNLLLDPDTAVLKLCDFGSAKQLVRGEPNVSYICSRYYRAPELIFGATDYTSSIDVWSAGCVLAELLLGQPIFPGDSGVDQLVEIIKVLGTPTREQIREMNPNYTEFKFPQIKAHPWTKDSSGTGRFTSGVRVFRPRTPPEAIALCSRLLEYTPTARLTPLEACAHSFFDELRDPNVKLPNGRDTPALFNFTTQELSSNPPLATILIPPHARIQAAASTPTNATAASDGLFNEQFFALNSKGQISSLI
How it was run: as §3

[5] = molecular target: T6, MAP Kinase (ERK-2 isoform) (Rattus norvegicus, UniProt P63086); assay: Kinase Selectivity Assay MAP Kinase (ERK-2); assay type: biochemical; conditions: Kinase Selectivity, Tables 2a-2k; read-out: ERK 2 IC50
T6 construct: polyhistidine (N); host or cells: E. coli
T6 sequence (P63086 whole entry, canonical isoform): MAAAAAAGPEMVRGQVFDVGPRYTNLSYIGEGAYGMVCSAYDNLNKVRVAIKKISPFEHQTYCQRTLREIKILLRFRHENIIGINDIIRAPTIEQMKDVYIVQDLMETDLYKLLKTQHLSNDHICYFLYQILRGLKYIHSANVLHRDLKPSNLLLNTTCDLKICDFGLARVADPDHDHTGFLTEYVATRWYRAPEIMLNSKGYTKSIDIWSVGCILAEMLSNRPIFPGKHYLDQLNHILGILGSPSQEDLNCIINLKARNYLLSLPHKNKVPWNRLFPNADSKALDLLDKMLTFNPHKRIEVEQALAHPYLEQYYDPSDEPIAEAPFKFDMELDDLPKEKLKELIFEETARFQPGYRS
How it was run: as §3

[6] = molecular target: T7, PDGF-R (platelet derived growth factor receptor) beta subunit kinase domain (Homo sapiens, UniProt P09619); assay: Kinase Selectivity Assay PDGF-R; assay type: biochemical; conditions: Kinase Selectivity, Tables 2a-2k; read-out: PDGF-R kinase IC50
T7 construct: nucleotides 1874-3507 of the human PDGF-R beta subunit kinase domain; polyhistidine (N)
T7 sequence (P09619 564-1106): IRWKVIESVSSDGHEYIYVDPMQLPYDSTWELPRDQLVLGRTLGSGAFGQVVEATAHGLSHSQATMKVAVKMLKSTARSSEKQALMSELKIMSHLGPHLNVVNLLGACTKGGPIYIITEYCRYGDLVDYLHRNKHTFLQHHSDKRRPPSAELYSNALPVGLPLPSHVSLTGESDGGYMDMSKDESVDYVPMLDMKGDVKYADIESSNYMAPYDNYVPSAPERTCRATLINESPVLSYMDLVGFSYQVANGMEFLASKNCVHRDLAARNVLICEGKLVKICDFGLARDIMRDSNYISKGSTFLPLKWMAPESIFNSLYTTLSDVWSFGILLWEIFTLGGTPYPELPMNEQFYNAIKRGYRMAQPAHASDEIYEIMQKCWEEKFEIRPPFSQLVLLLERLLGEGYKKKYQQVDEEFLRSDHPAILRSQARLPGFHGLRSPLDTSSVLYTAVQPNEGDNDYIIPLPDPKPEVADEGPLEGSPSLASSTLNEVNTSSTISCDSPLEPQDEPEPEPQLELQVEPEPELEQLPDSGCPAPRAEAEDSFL
How it was run: as §3

[7] = molecular target: T8, HER2 (human epidermal growth factor receptor-2) (Homo sapiens, UniProt P04626); assay: Kinase Selectivity Assay HER2; assay type: biochemical
T8 construct: begins at amino acid 676 followed by the remainder of the HER2 cytoplasmic domain; polyhistidine (N)
T8 sequence (P04626 676-1255 limits assumed): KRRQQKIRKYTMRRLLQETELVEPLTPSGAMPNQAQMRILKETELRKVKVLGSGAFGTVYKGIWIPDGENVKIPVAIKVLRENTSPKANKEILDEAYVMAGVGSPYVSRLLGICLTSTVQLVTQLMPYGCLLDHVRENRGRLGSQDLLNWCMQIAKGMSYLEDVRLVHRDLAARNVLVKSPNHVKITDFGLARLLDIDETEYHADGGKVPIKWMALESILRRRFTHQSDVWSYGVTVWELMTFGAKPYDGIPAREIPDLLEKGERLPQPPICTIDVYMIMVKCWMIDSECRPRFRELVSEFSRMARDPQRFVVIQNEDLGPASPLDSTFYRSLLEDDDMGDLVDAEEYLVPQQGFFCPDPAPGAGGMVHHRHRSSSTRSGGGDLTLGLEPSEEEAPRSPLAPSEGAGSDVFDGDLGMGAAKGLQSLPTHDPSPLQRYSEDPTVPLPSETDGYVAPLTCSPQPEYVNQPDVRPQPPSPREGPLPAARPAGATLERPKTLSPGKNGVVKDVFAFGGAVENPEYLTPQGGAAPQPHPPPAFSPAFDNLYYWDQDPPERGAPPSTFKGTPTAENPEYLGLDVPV
How it was run: as §3

[8] = test system: HeLa cervical adenocarcinoma; assay: Inhibition of Cell Proliferation (14C-thymidine incorporation), HeLa; assay type: cell-based; conditions: Homo sapiens, HeLa cell line
Description: (§4) The ability of a test compound to inhibit the proliferation of cell growth was determined by measuring incorporation of ^14C-labelled thymidine into newly synthesized DNA within the cells. This method was used on cell lines derived from carcinomas originating from several tissues such as HeLa cervical adenocarcinoma (American Type Culture Collection (ATCC), Virginia, Cat. #CCL-2), A375 malignant melanoma (ATCC CRL-1619), SK-OV-3 ovarian adenocarcinoma (ATCC HTB-77) HCT-116 colon carcinoma (CCL-247), PC-3 prostate adenocarcinoma (ATCC CRL-1435), and MDA-MB-231 (Xenogen Corp.) In this way the effect of a compound on cell growth of cells with many different phenotypes can be determined. Cells were trypsinized and counted and 3000-8000 cells were added to each well of a 96-well CytoStar tissue culture treated scintillating microplate (Amersham #RPNQ0160) in complete medium in a volume of 100 μl. Cells were incubated for 24 hours in complete medium at 37° C. in an atmosphere containing 5% CO2. Next, 1 μl of test compound in 100% DMSO was added to the wells of the plate. DMSO only was added to control wells. Cells were incubated for 24 more hours in complete medium at 37° C. in an atmosphere containing 5% CO2. Methyl ^14C-thymidine 56 mCi/mmol (NEN #NEC568 or Amersham #CFA532) was diluted in complete medium and 0.2 uCi/well was added to each well of the CytoStar plate in a volume of 20 μl. The plate was incubated for 24 hours at 37° C. plus 5% CO2 in drug plus ^14C-thymidine. The contents of the plate were discarded into a ^14C radioactive waste container by inverting the plate and the plate was washed twice with 200 μl PBS. 200 μl of PBS is added to each well. The top of the plate was sealed with a transparent plate sealer and a white plate backing sealer (Packard #6005199) was applied to the bottom of the plate. The degree of methyl ^14C-thymidine incorporation was quantified on a Packard Top Count.

A375 malignant melanoma = assay: Inhibition of Cell Proliferation (14C-thymidine incorporation), A375; assay type: cell-based; conditions: Homo sapiens, A-375, A375 cell line
Description: as §4

HCT-116 colon carcinoma = assay: Inhibition of Cell Proliferation (14C-thymidine incorporation), HCT-116; assay type: cell-based; conditions: Homo sapiens, HCT-116 cell line
Description: as §4

[9] = test system: PC-3 prostate adenocarcinoma; assay: Inhibition of Cell Proliferation (14C-thymidine incorporation), PC-3; assay type: cell-based; conditions: Homo sapiens, PC-3 cell line
Description: as §4

FGF-R2 = FGF-R2 (Homo sapiens, UniProt P21802); assay: Kinase Selectivity Assay FGF-R2; assay type: biochemical; conditions: Tables 2a-2k
Sequence of FGF-R2 (P21802 22-821, species assumed): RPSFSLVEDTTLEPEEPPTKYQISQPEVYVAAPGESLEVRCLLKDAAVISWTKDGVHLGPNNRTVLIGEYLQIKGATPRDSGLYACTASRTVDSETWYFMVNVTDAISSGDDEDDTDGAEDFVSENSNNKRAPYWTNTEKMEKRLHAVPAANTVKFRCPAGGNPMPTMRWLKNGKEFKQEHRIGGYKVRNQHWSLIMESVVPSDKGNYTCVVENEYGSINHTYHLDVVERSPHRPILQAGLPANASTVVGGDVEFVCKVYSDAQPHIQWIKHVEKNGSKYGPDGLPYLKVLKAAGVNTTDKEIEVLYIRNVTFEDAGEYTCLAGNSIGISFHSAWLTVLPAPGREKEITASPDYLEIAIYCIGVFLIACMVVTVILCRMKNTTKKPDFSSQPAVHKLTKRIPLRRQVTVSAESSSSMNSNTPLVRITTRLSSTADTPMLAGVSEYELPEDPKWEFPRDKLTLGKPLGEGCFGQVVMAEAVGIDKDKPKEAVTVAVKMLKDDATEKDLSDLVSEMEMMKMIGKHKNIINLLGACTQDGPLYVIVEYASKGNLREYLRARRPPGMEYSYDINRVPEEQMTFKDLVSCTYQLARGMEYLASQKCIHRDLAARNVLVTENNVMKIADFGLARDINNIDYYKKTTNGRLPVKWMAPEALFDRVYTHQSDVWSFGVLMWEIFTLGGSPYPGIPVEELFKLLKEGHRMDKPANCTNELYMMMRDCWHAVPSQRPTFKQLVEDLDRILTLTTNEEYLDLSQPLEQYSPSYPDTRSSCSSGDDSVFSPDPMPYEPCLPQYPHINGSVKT
Description: as §1

[10] = molecular target: T9, VEGF-R (vascular endothelial growth factor receptor-2) (Rattus norvegicus, UniProt O08775); assay: VEGF-R Screening Assay; assay type: biochemical; conditions: read-out: VEGF-R IC50
T9 construct: polyhistidine (6xHIS) (N)
T9 sequence (O08775 786-1343): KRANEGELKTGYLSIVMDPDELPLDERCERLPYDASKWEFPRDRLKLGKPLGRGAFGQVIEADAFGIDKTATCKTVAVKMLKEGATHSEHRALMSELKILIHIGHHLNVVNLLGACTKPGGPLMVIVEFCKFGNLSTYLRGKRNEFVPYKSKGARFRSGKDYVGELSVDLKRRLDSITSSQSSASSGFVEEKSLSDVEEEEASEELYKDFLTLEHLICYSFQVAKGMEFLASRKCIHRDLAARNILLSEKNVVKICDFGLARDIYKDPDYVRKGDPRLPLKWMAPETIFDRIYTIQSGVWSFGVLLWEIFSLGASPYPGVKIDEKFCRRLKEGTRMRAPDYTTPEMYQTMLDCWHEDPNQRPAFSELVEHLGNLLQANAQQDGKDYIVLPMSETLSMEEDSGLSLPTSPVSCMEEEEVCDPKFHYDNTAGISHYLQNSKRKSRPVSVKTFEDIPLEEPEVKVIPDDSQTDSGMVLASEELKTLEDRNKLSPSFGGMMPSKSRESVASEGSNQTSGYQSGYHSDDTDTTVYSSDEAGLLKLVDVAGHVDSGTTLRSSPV

[11] = molecular target: PKC (protein kinase-C), gamma or beta isoform; assay: Kinase Selectivity Assay PKC; assay type: biochemical, human; conditions: Tables 2a-2k
Description: as §1
CDK2 in complex with cyclin A is commercially available (Upstate Biotech, Lake Placid, N.Y.). […]

[12] = molecular target: T10, CDK2 in complex with cyclin A (Homo sapiens, UniProt P24941); assay: Kinase Selectivity Assay CDK2; assay type: biochemical; conditions: Table 1
T10 construct: purchased Upstate Biotech
Description: as §1, §2

[13] = Kinase Selectivity, Tables 2a-2k, read-out: HER2 Kinase IC50

Sequence of Insulin Receptor Kinase (P06213 980-1352): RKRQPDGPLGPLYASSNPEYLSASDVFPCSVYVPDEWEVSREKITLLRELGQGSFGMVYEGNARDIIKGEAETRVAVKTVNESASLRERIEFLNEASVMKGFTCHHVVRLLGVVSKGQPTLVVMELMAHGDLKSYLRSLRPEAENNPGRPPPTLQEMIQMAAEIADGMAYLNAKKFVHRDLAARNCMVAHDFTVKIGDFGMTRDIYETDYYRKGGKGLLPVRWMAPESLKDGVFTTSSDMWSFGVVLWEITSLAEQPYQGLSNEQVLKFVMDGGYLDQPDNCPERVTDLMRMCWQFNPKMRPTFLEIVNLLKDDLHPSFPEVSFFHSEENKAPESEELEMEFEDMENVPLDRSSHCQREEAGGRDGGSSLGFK

Row | Structure (SMILES) | pIC50 (Insulin Receptor Kinase) | pIC50 (Protein Kinase A) | pIC50 [1] | pIC50 [2] | pIC50 [3] | pIC50 [4] | pIC50 [5] | pIC50 [6] | pIC50 [7, 13] | pIC50 ([7]; Table 1, read-out: HER2 IC50) | IC50 [8] | IC50 (A375 malignant melanoma) | IC50 (HCT-116 colon carcinoma) | IC50 [9] | pIC50 (FGF-R2) | pIC50 ([10]; Kinase Selectivity, Tables 2a-2k) | pIC50 ([10]; Table 1) | pIC50 [11] | pIC50 [12]
1 | CNS(=O)(=O)c1ccc(Nc2nc(N)n(C(=O)c3sc(C)cc3C)n2)cc1 [Cpd 83, 4-[[5-amino-1-[(3,5-dimethyl-2-thienyl)carbonyl]-1H-1,2,4-triazol-3-yl]amino]-N-methyl-benzenesulfonamide] | < 5.00 | < 4.00 | 6.56 | < 4.00 | < 4.00 | 8.15 | < 4.00 | 6.95 | 7.89 | 7.89 | 122 nM | 556 nM | 192 nM | 12 nM | 7.66 | – | – | – | –
2 | Cc1cc(C)c(C(=O)n2nc(Nc3ccc(-n4ccnc4)cc3)nc2N)s1 [Cpd 92, 1-[(3,5-dimethyl-2-thienyl)carbonyl]-N^3-[4-(1H-imidazol-1-yl)phenyl]-1H-1,2,4-triazole-3,5-diamine] | 5.51 | < 4.00 | < 5.00 | < 4.00 | 4.71 | 7.68 | < 4.00 | 6.55 | – | – | 269 nM | – | – | 1120 nM | 6.62 | – | – | – | –
3 | Cc1ccsc1C(=O)n1nc(Nc2ccc(-n3cncn3)cc2)nc1N [Cpd 99, 1-[(3-methyl-2-thienyl)carbonyl]-N^3-[4-(1H-1,2,4-triazol-1-yl)phenyl]-1H-1,2,4-triazole-3,5-diamine] | < 4.00 | – | < 6.00 | < 4.00 | < 4.00 | 7.52 | < 4.00 | 6.41 | – | – | 3350 nM | – | – | 1690 nM | – | 7.01 | 7.01 | < 4.00 | –
4 | Cc1ccsc1C(=O)n1nc(Nc2ccc(NS(C)(=O)=O)cc2)nc1N [Cpd 109] | 5.56 | < 4.00 | 5.93 | < 5.00 | < 4.00 | 7.41 | < 5.00 | 6.38 | – | – | 479 nM | – | 51 nM | 307 nM | 6.61 | – | – | – | 7.68
5 | CCc1ccc(C(=O)n2nc(Nc3ccc(NS(C)(=O)=O)cc3)nc2N)s1 [Cpd 110] | 7.28 | < 4.00 | 6.72 | < 5.30 | < 4.00 | 8.10 | 5.06 | 6.55 | 8.22 | 8.26 | 237 nM | 239 nM | 187 nM | – | 6.82 | – | – | – | 8.30
6 | CCc1ccc(C(=O)n2nc(Nc3ccc(S(=O)(=O)Nc4ccccn4)cc3)nc2N)s1 [Cpd 119] | – | < 4.00 | 6.12 | < 4.00 | < 4.00 | 8.22 | < 4.00 | < 5.00 | 6.00 | ~6.00 | – | – | – | – | – | – | – | < 4.00 | 8.52

Reference: patent US6924302B2, “Substituted triazole diamine derivatives as kinase inhibitors” (Ortho McNeil Pharmaceutical, Inc., priority 2000, dated 2005)
